Here are results for one sequence from US12570696B2, “Tumor-specific polypeptide sequence and use thereof” (SHENZHEN GINO BIOTECHNOLOGY CO., LTD., priority 2019, dated 2026).

Where “and” joins values, the source holds several entries; their conditions need not be identical. Equal values may be shown once.

Test [1] has as its system HCC827 subcutaneous tumor model. Kind of test: Polypeptide-specific DC-CTL vaccine in mouse subcutaneous transplanted tumor model. The note with it: polypeptide-activated CTLs reinfused through the tail vein; compared with blank polypeptide and wild-type polypeptide groups; FIG. 6. Format: in vivo, NOD/SCID mice. From the text: (§1) This model was used to verify the tumor control effect of the polypeptide pharmaceutical combination, the antigen-presenting cell, and the vaccine proposed by the present disclosure. • 1. The encoding gene of each polypeptide was introduced by lentivirus transfection, and the recombinant lentivirus expressing the above-mentioned mutant polypeptide or a variant thereof was constructed and packaged. • 2. Construction of human-derived lung cancer cell line expressing the polypeptides
(§2) The human lung cancer cell line HCC827 was purchased from ATCC (No: CRL-2868), and its HLA subtype was HLA-A*1101 positive. Cells were cultured in DMEM medium containing 10% fetal bovine serum, 100 U/mL penicillin and streptomycin, in an incubator at 37° C., 5% CO2. […]
The established human lung cancer cell line was cultured in DMEM medium containing 10% fetal bovine serum, 100 U/mL penicillin and streptomycin, in an incubator at 37° C., 5% CO2. […] The subcutaneous tumor model NOD/SCID mice with immune reconstitution for 4 weeks were treated with DC vaccine, and the tumor volumes were recorded every 3 to 4 days.
The PBLs collected in Example 9 were sorted by magnetic beads to obtain CD8^+ T cells. […] The culture medium was incubated with 500 IU/ml IL-2 and 50 ng/ml IL-7, in an incubator at 37° C. with 5% CO2, and the cells were counted after 1 week of culture. […]

The test system of another test is T2 cells. Kind of test: LDH release assay of polypeptide-specific killing activity of CD8+ T cells. Format: cell-based. The note with it: triplicate wells. The method, then:
(§3) The peripheral blood mononuclear cells (PBMCs) were collected from the volunteers who were positive for the corresponding subtype of the polypeptide. For 2×10^7 PBMCs, mononuclear cells were separated by using the adherent method (adhered for 3 h), and CD8^+ T cells were isolated by using CD8 magnetic beads. The adherent mononuclear cells were induced to immature DC cells by using GM-CSF (1000 U/ml) and IL-4 (1000 U/ml). Then, the adherent cells were induced into polypeptide-specific mature DC cells by IFN-gamma (100 U/ml), LPS (10 ng/ml), and the respective polypeptides. The obtained polypeptide-specific mature DC cells were co-cultured with volunteers' CD8^+ T cells, and IL-21 was added. After 3 days, IL-2 and IL-7 were supplemented. Thereafter, IL-2 and IL-7 were supplemented on day 5 and day 7, and on day 10, the co-cultured cells were counted, and the subsequent ELISPOTs and LDH were detected.
LDH is an enzyme present in the cytoplasm. LDH will be released into the culture medium when the cell membrane is damaged. Since the released LDH is stable, the measured amount of LDH in the medium can be used as an indicator to measure the number of dead and damaged cells.
The cells cultured in Example 4 were co-cultured with the T2 cells loaded with the testing polypeptide or the irrelevant polypeptide or no polypeptide. In the assay, maximum release wells, volume correction wells, medium control wells, spontaneous release wells, different effect-target ratios (the ratio of the number of T cells to the number of T2 cells) were set, triplicated wells for each group. After 4 hours, 50 μl of the co-cultured cell supernatant was taken and added to 50 μl of LDH substrate mixture, allowing the cell supernatant to catalyze the LDH substrate reaction, finally reading at the wavelength of 490 nm and the reference wavelength of 680 nm. Based on the control wells, the killing activity of […] killing T2 cells was calculated. The greater the value shown in Table 4, the stronger the killing effect.

In test [2] the test system is HCC827 subcutaneous tumor model. Kind of test: Polypeptide vaccine in mouse subcutaneous transplanted tumor model. Format: in vivo, NOD/SCID mice. As to conditions: polypeptide + Freund's adjuvant, 4 immunizations, compared with wild-type polypeptide group and adjuvant group, FIG. 4.
Description: as §1, §2
(§4) The established human lung cancer cell line was cultured in DMEM medium containing 10% fetal bovine serum, 100 U/mL penicillin and streptomycin, in an incubator at 37° C., 5% CO2. […] The subcutaneous tumor model NOD/SCID mice with immune reconstitution for 4 weeks were treated with DC vaccine, and the tumor volumes were recorded every 3 to 4 days. […]
The first immunization dosage of the polypeptide of each group was […] per mouse. […] After the injection, the vital signs of the mice were observed, and the vertical and horizontal sizes of the tumor were measured with a vernier caliper every 3 to 4 days. […]

A further test has as its system CD8+ T cells. Kind of test: ELISPOT verification of activation of CD8+ T cell immune response (IFN-gamma secretion). Format: cell-based, human. As to the method:
as §3
The ELISPOT method is an enzyme-linked immunospot assay, which can detect the cytokines secreted by a single cell. In the assay, the culture plate was coated with specific monoclonal antibodies, and then the cells to be detected and antigenic stimulant were added for culture. Under the stimulation of the stimulant, the corresponding cytokines were secreted by the T cells, and the secreted cytokines were captured by the antibodies coated on the culture plate. After washing away the cells, the captured cytokines were bonded to […] secondary antibodies to form spots. […]
With reference to the specification in the ELISPOT kit, the cells cultured in Example 4, T2 cells loaded with testing polypeptide ([…], SEQ ID NO: 2), and T2 cells loaded with irrelevant polypeptide (referring to a polypeptide not stimulating T cells to secrete IFN-gamma interferon and having a specific sequence of […], the irrelevant polypeptide used in the following examples also refers to this sequence) were added respectively to the ELISPOT plate for cultivation, and ELISPOTs were detected after 20 hours (see the specification of the ELISPOT kit). […]

The target in test [3] is T1, MHC I molecules on the surfaces of T2 cells (HLA-A*11:01) (Homo sapiens, UniProt P04439, A114D/D185E/E176A/F33Y/L180Q/S129P/T187R).
T1 construct: endogenous in cells; host or cells: T2 cells
Kind of test: Verification of affinity of polypeptide with T2 cells (flow cytometry, fluorescence index). The test is classed as cell-based. From the text: T2 cells are a necessary antigen polypeptide transporter-deficient cell line in the endogenous antigen presentation pathway, and can be used to study the strength of the mutual recognition with MHC molecules in the antigen presentation process.
In order to verify the affinity of exogenous polypeptides with T2 cells, a polypeptide that had been confirmed to have strong affinity with T2 cells was used as positive control, and T2 cells without adding polypeptides were used as background control. […] Based on this, the affinity of the polypeptide with T2 cells is determined. The higher the FI value, the stronger the affinity of the polypeptide with T2 cells, which is conducive to the subsequent recognition of specific CD8^+ T cells.
The synthesized polypeptides were added to 2*10^5 T2 cells, and human β2 micro-globulin (with a final concentration of 3 μg/ml) was added and cultivated in 24-well plate. The plate was cultured in an incubator (37° C., 5% CO2) overnight. […] (SEQ ID NO: 9), which is a viral peptide and is also a known polypeptide with strong affinity with T2 cells, was used as a positive control, duplicate wells for each experiment, and the average value was calculated.
[…] for 5 minutes to collect the cells. […] The mean fluorescence intensity was then detected and analyzed by a flow cytometer (BD FACSJazz™) and its software, see FIG. 2.

The subject of test [4] is HCC827 subcutaneous tumor model. Kind of test: DC polypeptide vaccine in mouse subcutaneous transplanted tumor model. Format: in vivo, NOD/SCID mice. As to conditions: polypeptide-loaded DC cells, intradermal, 2 injections; compared with wild-type and blank polypeptide-loaded DC groups; FIG. 5.
Description: as §1
The human lung cancer cell line HCC827 was purchased from ATCC (No: CRL-2868), and its HLA subtype was HLA-A*1101 positive. Cells were cultured in DMEM medium containing 10% fetal bovine serum, 100 U/mL penicillin and streptomycin, in an incubator at 37° C., 5% CO2. The packaged lentivirus was transfected into the HCC827 cell line, and antibiotic puromycin was used to continuously screen the surviving HCC827 cell line, and finally the HCC827 cell line expressing the polypeptides was established. • 3. NOD SCID mouse human immune reconstitution […]
as §4

On to RHGGWTTK (Mutant polypeptide), for which the “Mouse tumor growth (tumor volume), DC-CTL vaccine” value in test [1] is given as “can significantly slow down the mouse tumor growth”. In the test on T2 cells (E:T = 1:1, 4 hours), the “Killing activity, T + T2 (loaded with no polypeptide)” value was 0.322 and 0.279 and 0.298; the “Killing activity, T + T2 + irrelevant polypeptide” value was 0.278 and 0.293 and 0.308; the “Killing activity, T + T2 + testing polypeptide” value was 0.324 and 0.351. Moreover, in the test on T2 cells (E:T = 10:1, 4 hours), the “Killing activity, T + T2 (loaded with no polypeptide)” value is 0.413 and 0.352 and 0.364; the “Killing activity, T + T2 + irrelevant polypeptide” value is 0.436 and 0.371 and 0.407; the “Killing activity, T + T2 + testing polypeptide” value is 0.406 and 0.397 and 0.414. The “Mouse tumor growth (tumor volume), polypeptide vaccine” value in test [2] was “can significantly slow down the mouse tumor growth”. In the test with CD8+ T cells (IFN-gamma ELISPOT, T2 cells loaded with irrelevant polypeptide LSYRNKPSI, 20 hours), the “Number of spots produced by using irrelevant polypeptide as stimulant” value turned out to be 11. Further, in the test with CD8+ T cells (IFN-gamma ELISPOT, T2 cells loaded with testing polypeptide, 20 hours), the “Number of spots produced by using testing polypeptide as stimulant” value is 104. Also, the “Multiple (testing/irrelevant)” value in the test on CD8+ T cells (ratio of spot numbers, >=2 regarded as having immunogenicity) stood at 9. Besides, the “Conclusion (T2 cell affinity)” value in test [3] (compared with the positive control) is given as “High affinity”. In test [3] (fluorescence index, T2 cells, overnight, FITC anti-HLA-A*11:01 antibody, flow cytometry), this sequence yielded an FI of 2.12. Also, the “Mouse tumor growth (tumor volume), polypeptide-loaded DC vaccine” value in test [4] is given as “can significantly slow down the mouse tumor growth”.
